According to the NIST ThermoML archive (doi:10.1016/j.fluid.2012.11.011):

Assay: osmotic coefficient (dimensionless); mn = molality of the nth substance listed, in mol/kg
Conditions: 298.15 K, Liquid, isopiestic method

CC1(C)S[C@@H]2[C@H](NC(=O)Cc3ccccc3)C(=O)N2[C@H]1C(=O)[O-].[Na+] + O
Conditions	osmotic coefficient
2.442 kPa, m1 = 9.082	0.796
2.452 kPa, m1 = 9.136	0.779
2.606 kPa, m1 = 7.249	0.749
2.623 kPa, m1 = 7.416	0.708
2.757 kPa, m1 = 5.709	0.678
2.901 kPa, m1 = 3.775	0.652
2.919 kPa, m1 = 3.9	0.585
2.93 kPa, m1 = 3.429	0.636
2.93 kPa, m1 = 3.558	0.612
2.958 kPa, m1 = 3.303	0.582
2.986 kPa, m1 = 2.627	0.63
2.989 kPa, m1 = 2.675	0.61
2.989 kPa, m1 = 2.704	0.603
3.002 kPa, m1 = 2.483	0.608
3.006 kPa, m1 = 2.489	0.592
3.007 kPa, m1 = 2.326	0.629
3.007 kPa, m1 = 2.366	0.62
3.009 kPa, m1 = 2.334	0.618
3.033 kPa, m1 = 2.001	0.612
3.049 kPa, m1 = 1.757	0.616
3.05 kPa, m1 = 1.757	0.61
3.068 kPa, m1 = 1.28	0.705
3.089 kPa, m1 = 1.073	0.672
3.091 kPa, m1 = 1.085	0.647
3.123 kPa, m1 = 0.457	0.903
3.126 kPa, m1 = 0.4044	0.966
3.17 kPa, m1 = 0	1

CC1(C)S[C@@H]2[C@H](NC(=O)[C@H](N)c3ccccc3)C(=O)N2[C@H]1C(=O)[O-].[Na+] [Ampicillin Sodium] + O
Conditions	osmotic coefficient
2.467 kPa, m1 = 7.468	0.93
2.565 kPa, m1 = 6.773	0.867
2.654 kPa, m1 = 5.991	0.822
2.747 kPa, m1 = 5.699	0.696
2.901 kPa, m1 = 4.439	0.553
2.908 kPa, m1 = 4.261	0.562
2.926 kPa, m1 = 4.103	0.54
2.942 kPa, m1 = 3.839	0.538
2.982 kPa, m1 = 3.301	0.513
3.005 kPa, m1 = 2.932	0.504
3.006 kPa, m1 = 2.958	0.499
3.008 kPa, m1 = 2.867	0.506
3.011 kPa, m1 = 2.855	0.498
3.031 kPa, m1 = 2.397	0.519
3.032 kPa, m1 = 2.398	0.514
3.052 kPa, m1 = 1.912	0.548
3.066 kPa, m1 = 1.699	0.546
3.076 kPa, m1 = 1.476	0.563
3.079 kPa, m1 = 1.392	0.578
3.081 kPa, m1 = 1.369	0.575
3.098 kPa, m1 = 1.134	0.564
3.099 kPa, m1 = 1.093	0.576
3.102 kPa, m1 = 0.9835	0.612
3.103 kPa, m1 = 0.9725	0.612
3.103 kPa, m1 = 1.029	0.578
3.104 kPa, m1 = 1.015	0.576
3.111 kPa, m1 = 0.8951	0.586
3.113 kPa, m1 = 0.8284	0.612
3.113 kPa, m1 = 0.8511	0.591
3.118 kPa, m1 = 0.7369	0.617
3.119 kPa, m1 = 0.6767	0.67
3.119 kPa, m1 = 0.6922	0.651
3.119 kPa, m1 = 0.7007	0.644
3.119 kPa, m1 = 0.7507	0.597
3.13 kPa, m1 = 0.5215	0.672
3.131 kPa, m1 = 0.525	0.654
3.131 kPa, m1 = 0.5325	0.648
3.132 kPa, m1 = 0.47	0.72
3.133 kPa, m1 = 0.4627	0.704
3.139 kPa, m1 = 0.3871	0.705
3.144 kPa, m1 = 0.3032	0.75
3.145 kPa, m1 = 0.3044	0.714
3.155 kPa, m1 = 0.1575	0.856
3.162 kPa, m1 = 0.0754	0.885
3.17 kPa, m1 = 0	1
